This note sets out measurements from patent US20170002360A1, “PROTEIN PHOSPHATASE INHIBITOR” (priority 2013, published 2017).

For series [1], the system named is DU145 prostate cancer wild type cell line. Nature of the series: CPT titration, loss of viability, wild-type prostate cancer cells. The format is cell-based. The following applies: varying concentrations of CPT; 48 hrs post CPT treatment. The procedure: FIG. 6A: Camptothecin (CPT) treatment of DU145 prostate cancer wild-type cell line. CPT was titrated on DU145 wild-type cells and 48 hrs post CPT treatment, the cells were examined for the loss of viability compared to control (untreated)
(§1) In addition to the described experiments, the effect of inhibiting the phosphatase PPEF1 on characterized published drug resistant cell lines was assessed. The resistant cell lines used in these experiments were DU145/RCO.1 cells, which were kindly provided by Prof. Dr. Yves Pommier from the Laboratory of Molecular Pharmacology, Center of Cancer research, National Cancer institute, Bethesda, USA. These DU145/RCO.1 cells and their resistance to CPT) have been described Urasaki et al. (Cancer Research 61, 2001, pp. 1964-1969). Initially, DU145 prostate cancer wild type cell line was treated with varying concentrations of camptothecin (CPT).

In the next series the test system is DU145/RCO.1 cells. Nature of the series: CPT titration, loss of viability, CPT resistant cells with or without PPEF1 SiRNA. Type of series: cell-based. As to conditions: 48 hrs post CPT treatment.
From the text: FIG. 6B: Camptothecin treatment of CPT approved resistant cells. CPT was titrated on DU145/RCO.1 cells reported to be resistant to CPT. 48 hrs post CPT treatment, the cells were examined for the loss of viability compared to control (untreated)
FIG. 6C: Camptothecin treatment of CPT approved resistant cells after PPEF1 inhibition. 24 hrs post PPEF1 SiRNA treatment, CPT was titrated on DU145/RCO.1 cells reported to be resistant to CPT. 48 hrs post CPT treatment, the cells were examined for the loss of viability compared to control (untreated)
as §1
The results of these experiments can be seen in FIG. 6c.

Regarding `CC[C@@]1(O)C(=O)OCc2c1cc1n(c2=O)Cc2cc3ccccc3nc2-1` [CPT, camptothecin], the viability entry in series [1] is “greatly reduced”; in the series on DU145/RCO.1 cells (varying concentrations of CPT alone), “did not significantly change”. With “Example 2: SiRNA oligonucleotide targeting PPEF1, CAGTTCGAATCTGGTAAACAT, obtained from Qiagen (chemistry not given here)”, the “sensitivity to CPT / viability” value in the series on DU145/RCO.1 cells (CPT titrated 24 hrs post PPEF1 SiRNA treatment) is “became sensitive and lost viability”.
